{"source": "the supplement of paper PMC10307832", "experiment_in_all_cases": "relative viability (nuclei count vs DMSO), 5 days (fraction); higher = more cells survive", "key": {"LCLC-103H": {"system": "LCLC-103H", "summary_of_the_method": "(§1)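 Nuclei were stained with Hoechst during a one-step fixation (final 0.05% Triton X-100, 1% formaldehyde, 1 ug/ml Hoechst) carried out 5 days after dosing, then counted on 4× images. The cells, lung cancer lines in 1536-well plates, had been dosed by pin tool the day after seeding with one drug alone or a fixed anchor-drug dose plus five library-drug doses (not always all listed) in √10 steps. Relative viability is the nuclei count in treated wells divided by that in vehicle wells, and each value is the median of duplicate plates.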"}, "LXF-289": {"system": "LXF-289", "summary_of_the_method": "as §1"}, "NCI-H1355": {"system": "NCI-H1355", "summary_of_the_method": "as §1"}, "NCI-H1651": {"system": "NCI-H1651", "summary_of_the_method": "as §1"}, "NCI-H1755": {"system": "NCI-H1755", "summary_of_the_method": "as §1"}, "NCI-H1792": {"system": "NCI-H1792", "summary_of_the_method": "as §1"}, "NCI-H1915": {"system": "NCI-H1915", "summary_of_the_method": "as §1"}, "NCI-H2170": {"system": "NCI-H2170", "summary_of_the_method": "as §1"}, "NCI-H2347": {"system": "NCI-H2347", "summary_of_the_method": "as §1"}, "NCI-H3122": {"system": "NCI-H3122", "summary_of_the_method": "as §1"}, "NCI-H322M": {"system": "NCI-H322M", "summary_of_the_method": "as §1"}, "NCI-H441": {"system": "NCI-H441", "summary_of_the_method": "as §1"}, "NCI-H460": {"system": "NCI-H460", "summary_of_the_method": "as §1"}, "NCI-H520": {"system": "NCI-H520", "summary_of_the_method": "as §1"}, "NCI-H596": {"system": "NCI-H596", "summary_of_the_method": "as §1"}, "NCI-H650": {"system": "NCI-H650", "summary_of_the_method": "as §1"}, "NCI-H661": {"system": "NCI-H661", "summary_of_the_method": "as §1"}, "NCI-H727": {"system": "NCI-H727", "summary_of_the_method": "as §1"}, "PC-14": {"system": "PC-14", "summary_of_the_method": "as §1"}, "RERF-LC-KJ": {"system": "RERF-LC-KJ", "summary_of_the_method": "as §1"}, "SK-MES-1": {"system": "SK-MES-1", "summary_of_the_method": "as §1"}, "SW 900": {"system": "SW 900", "summary_of_the_method": "as §1"}}}
{"smiles": "O=C(O)c1ccc(-c2c[nH]c3ncc(-c4ccccc4)cc23)cc1C1CCCC1", "note": "+ Nc1ncn([C@H]2C[C@H](O)[C@@H](CO)O2)c(=O)n1 [Decitabine] (partner 2 µM)", "values": [{"measurement": "relative viability", "setting": "LCLC-103H; first compound 0.04 µM", "value": 0.767}, {"measurement": "relative viability", "setting": "LCLC-103H; first compound 0.1265 µM", "value": 0.789}, {"measurement": "relative viability", "setting": "LCLC-103H; first compound 0.4 µM", "value": 0.746}, {"measurement": "relative viability", "setting": "LCLC-103H; first compound 1.265 µM", "value": 0.667}, {"measurement": "relative viability", "setting": "LXF-289; first compound 0.04 µM", "value": 0.352}, {"measurement": "relative viability", "setting": "LXF-289; first compound 0.1265 µM", "value": 0.355}, {"measurement": "relative viability", "setting": "LXF-289; first compound 0.4 µM", "value": 0.361}, {"measurement": "relative viability", "setting": "LXF-289; first compound 1.265 µM", "value": 0.302}, {"measurement": "relative viability", "setting": "NCI-H1355; first compound 0.04 µM", "value": 0.337}, {"measurement": "relative viability", "setting": "NCI-H1355; first compound 0.1265 µM", "value": 0.331}, {"measurement": "relative viability", "setting": "NCI-H1355; first compound 0.4 µM", "value": 0.408}, {"measurement": "relative viability", "setting": "NCI-H1355; first compound 1.265 µM", "value": 0.307}, {"measurement": "relative viability", "setting": "NCI-H1651; first compound 0.04 µM", "value": 0.477}, {"measurement": "relative viability", "setting": "NCI-H1651; first compound 0.1265 µM", "value": 0.616}, {"measurement": "relative viability", "setting": "NCI-H1651; first compound 0.4 µM", "value": 0.57}, {"measurement": "relative viability", "setting": "NCI-H1651; first compound 1.265 µM", "value": 0.54}, {"measurement": "relative viability", "setting": "NCI-H1755; first compound 0.04 µM", "value": 0.699}, {"measurement": "relative viability", "setting": "NCI-H1755; first compound 0.1265 µM", "value": 0.753}, {"measurement": "relative viability", "setting": "NCI-H1755; first compound 0.4 µM", "value": 0.713}, {"measurement": "relative viability", "setting": "NCI-H1755; first compound 1.265 µM", "value": 0.705}, {"measurement": "relative viability", "setting": "NCI-H1792; first compound 0.04 µM", "value": 0.515}, {"measurement": "relative viability", "setting": "NCI-H1792; first compound 0.1265 µM", "value": 0.51}, {"measurement": "relative viability", "setting": "NCI-H1792; first compound 0.4 µM", "value": 0.543}, {"measurement": "relative viability", "setting": "NCI-H1792; first compound 1.265 µM", "value": 0.457}, {"measurement": "relative viability", "setting": "NCI-H1915; first compound 0.04 µM", "value": 0.241}, {"measurement": "relative viability", "setting": "NCI-H1915; first compound 0.1265 µM", "value": 0.229}, {"measurement": "relative viability", "setting": "NCI-H1915; first compound 0.4 µM", "value": 0.259}, {"measurement": "relative viability", "setting": "NCI-H1915; first compound 1.265 µM", "value": 0.251}, {"measurement": "relative viability", "setting": "NCI-H2170; first compound 0.04 µM", "value": 0.459}, {"measurement": "relative viability", "setting": "NCI-H2170; first compound 0.1265 µM", "value": 0.478}, {"measurement": "relative viability", "setting": "NCI-H2170; first compound 0.4 µM", "value": 0.437}, {"measurement": "relative viability", "setting": "NCI-H2170; first compound 1.265 µM", "value": 0.437}, {"measurement": "relative viability", "setting": "NCI-H2347; first compound 0.04 µM", "value": 0.609}, {"measurement": "relative viability", "setting": "NCI-H2347; first compound 0.1265 µM", "value": 0.603}, {"measurement": "relative viability", "setting": "NCI-H2347; first compound 0.4 µM", "value": 0.647}, {"measurement": "relative viability", "setting": "NCI-H2347; first compound 1.265 µM", "value": 0.582}, {"measurement": "relative viability", "setting": "NCI-H3122; first compound 0.04 µM", "value": 0.423}, {"measurement": "relative viability", "setting": "NCI-H3122; first compound 0.1265 µM", "value": 0.431}, {"measurement": "relative viability", "setting": "NCI-H3122; first compound 0.4 µM", "value": 0.471}, {"measurement": "relative viability", "setting": "NCI-H3122; first compound 1.265 µM", "value": 0.428}, {"measurement": "relative viability", "setting": "NCI-H322M; first compound 0.04 µM", "value": 0.772}, {"measurement": "relative viability", "setting": "NCI-H322M; first compound 0.1265 µM", "value": 0.704}, {"measurement": "relative viability", "setting": "NCI-H322M; first compound 0.4 µM", "value": 0.723}, {"measurement": "relative viability", "setting": "NCI-H322M; first compound 1.265 µM", "value": 0.66}, {"measurement": "relative viability", "setting": "NCI-H441; first compound 0.04 µM", "value": 0.221}, {"measurement": "relative viability", "setting": "NCI-H441; first compound 0.1265 µM", "value": 0.254}, {"measurement": "relative viability", "setting": "NCI-H441; first compound 0.4 µM", "value": 0.251}, {"measurement": "relative viability", "setting": "NCI-H441; first compound 1.265 µM", "value": 0.251}, {"measurement": "relative viability", "setting": "NCI-H460; first compound 0.04 µM", "value": 0.521}, {"measurement": "relative viability", "setting": "NCI-H460; first compound 0.1265 µM", "value": 0.531}, {"measurement": "relative viability", "setting": "NCI-H460; first compound 0.4 µM", "value": 0.468}, {"measurement": "relative viability", "setting": "NCI-H460; first compound 1.265 µM", "value": 0.459}, {"measurement": "relative viability", "setting": "NCI-H520; first compound 0.04 µM", "value": 0.493}, {"measurement": "relative viability", "setting": "NCI-H520; first compound 0.1265 µM", "value": 0.489}, {"measurement": "relative viability", "setting": "NCI-H520; first compound 0.4 µM", "value": 0.5}, {"measurement": "relative viability", "setting": "NCI-H520; first compound 1.265 µM", "value": 0.358}, {"measurement": "relative viability", "setting": "NCI-H596; first compound 0.04 µM", "value": 1.05}, {"measurement": "relative viability", "setting": "NCI-H596; first compound 0.1265 µM", "value": 0.933}, {"measurement": "relative viability", "setting": "NCI-H596; first compound 0.4 µM", "value": 1.01}, {"measurement": "relative viability", "setting": "NCI-H596; first compound 1.265 µM", "value": 1.74}, {"measurement": "relative viability", "setting": "NCI-H650; first compound 0.04 µM", "value": 0.284}, {"measurement": "relative viability", "setting": "NCI-H650; first compound 0.1265 µM", "value": 0.317}, {"measurement": "relative viability", "setting": "NCI-H650; first compound 0.4 µM", "value": 0.329}, {"measurement": "relative viability", "setting": "NCI-H650; first compound 1.265 µM", "value": 0.274}, {"measurement": "relative viability", "setting": "NCI-H661; first compound 0.04 µM", "value": 0.518}, {"measurement": "relative viability", "setting": "NCI-H661; first compound 0.1265 µM", "value": 0.586}, {"measurement": "relative viability", "setting": "NCI-H661; first compound 0.4 µM", "value": 0.534}, {"measurement": "relative viability", "setting": "NCI-H661; first compound 1.265 µM", "value": 0.524}, {"measurement": "relative viability", "setting": "NCI-H727; first compound 0.04 µM", "value": 0.77}, {"measurement": "relative viability", "setting": "NCI-H727; first compound 0.1265 µM", "value": 0.848}, {"measurement": "relative viability", "setting": "NCI-H727; first compound 0.4 µM", "value": 0.818}, {"measurement": "relative viability", "setting": "NCI-H727; first compound 1.265 µM", "value": 0.788}, {"measurement": "relative viability", "setting": "PC-14; first compound 0.04 µM", "value": 0.19}, {"measurement": "relative viability", "setting": "PC-14; first compound 0.1265 µM", "value": 0.211}, {"measurement": "relative viability", "setting": "PC-14; first compound 0.4 µM", "value": 0.213}, {"measurement": "relative viability", "setting": "PC-14; first compound 1.265 µM", "value": 0.195}, {"measurement": "relative viability", "setting": "RERF-LC-KJ; first compound 0.04 µM", "value": 0.718}, {"measurement": "relative viability", "setting": "RERF-LC-KJ; first compound 0.1265 µM", "value": 0.718}, {"measurement": "relative viability", "setting": "RERF-LC-KJ; first compound 0.4 µM", "value": 0.596}, {"measurement": "relative viability", "setting": "RERF-LC-KJ; first compound 1.265 µM", "value": 0.468}, {"measurement": "relative viability", "setting": "SK-MES-1; first compound 0.04 µM", "value": 0.335}, {"measurement": "relative viability", "setting": "SK-MES-1; first compound 0.1265 µM", "value": 0.398}, {"measurement": "relative viability", "setting": "SK-MES-1; first compound 0.4 µM", "value": 0.363}, {"measurement": "relative viability", "setting": "SK-MES-1; first compound 1.265 µM", "value": 0.328}, {"measurement": "relative viability", "setting": "SW 900; first compound 0.04 µM", "value": 0.437}, {"measurement": "relative viability", "setting": "SW 900; first compound 0.1265 µM", "value": 0.456}, {"measurement": "relative viability", "setting": "SW 900; first compound 0.4 µM", "value": 0.38}, {"measurement": "relative viability", "setting": "SW 900; first compound 1.265 µM", "value": 0.344}]}
